Where a name gives a salt, the structure may show the parent alone. Read-outs that look alike come from different tables or passages of the source. Bridge positions count the residues as written; N and C are the ends. Ends that are not written are not given here.
B1: Bikunin (protein, UniProt P02760 206-352, looked up)
Inter-alpha-trypsin inhibitor …: AVLPQEEEGSGGGQLVTEVTKKEDSCQLGYSAGPCMGMTSRYFYNGTSMACETFQYGGCMGNGNNFVTEKECLQTCRTVAACNLPIVRGPCRAFIQLWAFDAVKGKCVLFPYGGCQGNGNKFYSEKECREYCGVPGDGDEELLRFSN
modifications: Inter-alpha-trypsin inhibitor light chain

Columns and labels:
[1] = test system: lentiviral pseudoparticles harboring the SARS-CoV-2 Hu-1 spike; assay: microbe, parasite or virus in culture; conditions: Severe acute respiratory syndrome coronavirus 2, Caco-2, 48 h, read-out: IC50, SARS-CoV-2 spike-driven pseudoparticle entry, Caco-2 cells, Hu-1 spike, luciferase 48 h after transduction
SARS-CoV-2 B.1 D614G = conditions: read-out: anti-viral IC50 (±SEM), SARS-CoV-2 B.1
[2] = test system: lentiviral pseudoparticles harboring the SARS-CoV-2 Hu-1 spike
[3] = read-out: IC50, SARS-CoV-2 spike-driven pseudoparticle entry, Caco-2 cells, luciferase 48 h after transduction

Molecule	IC50 [2, 3] [nM]	also measured
N=C(N)c1ccc2cc(OC(=O)c3ccc(N=C(N)N)cc3)ccc2c1 [Nafamostat mesylate]	–	IC50 [1]: 14.4 ± 1 nM
CN(C)C(=O)COC(=O)Cc1ccc(OC(=O)c2ccc(NC(=N)N)cc2)cc1 [Camostat mesylate]	–	IC50 (SARS-CoV-2 B.1 D614G): 4.1 ± 2 nM; IC50 [1]: 93.8 ± 6 nM
Aprotinin	427 ± 30	–
CC(=O)NCC(=O)N[C@@H](CCC(N)=O)C(=O)N[C@@H](Cc1ccccc1)C(=O)N[C@@H](CCCN=C(N)N)C(=O)c1nc2ccccc2s1 [MM3122, reference compound]	31.2 ± 3	–
Antitrypsin	–	IC50 ([2]; read-out: IC50, SARS-CoV-2 spike-driven pseudoparticle entry, Caco-2 cells, luciferase 48 h after transduction, listed as α‐1‐antitrypsin): 27400 ± 4100 nM
CNLPIVRGPCRAFIQLWAFDAVKGKCVLFPYGGCQGNGNKFYSEKECREYC (disulfide 1-51, 10-34, 26-47) [Bikunin KD 2]	170 ± 20	–
B1	6100 ± 1200	–

Source: article PMC12224939, “Trypstatin as a Novel TMPRSS2 Inhibitor with Broad‐Spectrum Efficacy against Corona and Influenza Viruses” (Advanced Science, 2025)
